One assay relates to E. coli BL21(DE3). Put plainly: Cell-based assay with ClbP with LCMS, ClbP negative strain. Conditions: 10 μM compound, 37° C., 20 h. As for the experimental part: (§1) This example is representative of the methods described in Example 97. ClbP was tested for its ability to activate compounds. […] Each of these three strains was struck out onto an appropriate solid media such as LB agar or BHI agar. The bacteria were then grown aerobically overnight at 37° C.
(§2) A single colony was isolated from the plate and inoculated into 10 mL LB. The liquid cultures were grown overnight aerobically at 37° C. with rocking on a nutator.
(§3) The saturated E. coli cultures were transferred into a biosafety cabinet. 5 μL of each culture was inoculated into fresh LB broth (200 μL total, 1:40 (v/v) dilution of the overnight culture), and the tested compound was added to a final concentration of 10 μM. To establish the native stability of the compound in media alone, the compound was also added to uninoculated media at a final concentration of 10 μM. Each compound was tested in duplicate with each strain or the media-alone incubation. The plate was sealed and incubated aerobically on a nutator at 37° C. for 20 h.
(§4) After 20 h, the reactions were stopped by addition of 200 μL acetonitrile. The contents of each well were mixed, and then the plate was centrifuged (4,000 rpm, 10 min). The plate was diluted serially to a final dilution of 1:100 first with Acetonitrile (10× dilution) and then with (4:1) Mobile Phase A-20 mM ammonium formate+water:Mobile Phase B-Isopropanol:Methanol:Water (4:4:2)+20 mM ammonium formate (10× dilution).
(§5) The amount of each remaining parent compound in each incubation was quantified by LC-MS analysis, with multiple-reaction monitoring targeting transitions specific to each parent compound.
(§6) The amount of compound present in the media-alone condition was normalized to 100%. The amount of parent compound present in the reaction with the ClbP-encoding E. coli (E. coli CFT073 ATCC 700928 and/or E. coli Nissle 1917) was compared to the amount present in the media-alone and expressed as a percent. Likewise, the amount of parent compound present in the reaction with the negative control E. coli BL21(DE3) was compared to the amount present in the media-alone and expressed as a percent.
(§7) In an ideal case, the amount of residual starting material in the reaction(s) with ClbP-encoding E. coli was <25% of the amount in the E. coli BL21(DE3) and media-alone conditions. In an acceptable case, the amount of residual starting material in the reaction(s) with ClbP-encoding E. coli was 25-75% of the amount in the E. coli BL21(DE3) and media-alone conditions. In a non-preferred case, the amount of residual starting material in the reaction(s) with ClbP-encoding E. coli was >75% of the amount in the E. coli BL21(DE3) and media-alone conditions.

Assay [1] has as its system E. coli CFT073 ATCC 700928 and/or E. coli Nissle 1917. The assay can be described thus: Cell-based assay with ClbP with LCMS, ClbP positive strain. Conditions: for % Remaining in ClbP Positve Relative to Media-Only: ClbP-encoding E. coli, 10 μM compound, 37° C., 20 h; for Difference between the ClbP Positive and ClbP Negative release profiles: conclusion from Table 4. As for the experimental part: as §1, §2, §3, §4, §5, §6, §7

SMILES strings stand for the structures. Non-standard residues stand in square brackets, D forms with d. Residues, ends and D or L forms follow the SMILES beside them. *: point of attachment. Octanoyl = CCCCCCCC(=O)*

Consider `CCCCCCCCCCCCCC(=O)N[C@H](CC(N)=O)C(=O)N[C@@H](C)CCC(=O)Oc1ccc2nc3c(c(CC)c2c1)Cn1c-3cc2c(c1=O)COC(=O)[C@]2(O)CC` [Example 24, (S)-4,11-diethyl-4-hydroxy-3,14-dioxo-3,4,12,14-tetrahydro-1H-pyrano[3′,4′:6,7]indolizino[1,2-b]quinolin-9-yl (S)-4-((R)-4-amino-4-oxo-2-tetradecanamidobutanamido)pentanoate], for which the “% Remaining in ClbP Negative Relative to Media-Only” value in the assay with E. coli BL21(DE3) is “− (>75% compound remaining in the 20 μM WT ClbP reaction relative to the no-enzyme control)”. For the same molecule, in assay [1], the “% Remaining in ClbP Positve Relative to Media-Only” value is “+ (between 25-75% compound remaining in the 20 μM WT ClbP reaction relative to the no-enzyme control)”.

Regarding `CCCCCCCC(=O)N[C@H](CC(N)=O)C(=O)NCCC(C)(C)C(=O)Oc1ccc2c(C)cc(=O)oc2c1` [Example 72A, 4-methyl-2-oxo-2H-chromen-7-yl (R)-4-(4-amino-2-octanamido-4-oxobutanamido)-2,2-dimethylbutanoate], the “% Remaining in ClbP Negative Relative to Media-Only” value in the assay with E. coli BL21(DE3) is reported as “+ (between 25-75% compound remaining in the 20 μM WT ClbP reaction relative to the no-enzyme control)”. The “% Remaining in ClbP Positve Relative to Media-Only” value in assay [1] was “+ (between 25-75% compound remaining in the 20 μM WT ClbP reaction relative to the no-enzyme control)”.

As for `CCCCCCCCCCCCCC(=O)N[C@H](CC(N)=O)C(=O)NCCN(C)C(=O)OC` [Example 30, Methyl (R)-(2-(4-amino-4-oxo-2-tetradecanamidobutanamido)ethyl)(methyl)carbamate], the “% Remaining in ClbP Negative Relative to Media-Only” value in the assay with E. coli BL21(DE3) is “− (>75% compound remaining in the 20 μM WT ClbP reaction relative to the no-enzyme control)”. In assay [1], the “% Remaining in ClbP Positve Relative to Media-Only” value is “+ (between 25-75% compound remaining in the 20 μM WT ClbP reaction relative to the no-enzyme control)”.

On to `CCCCCCCC(=O)N[C@H](CC(N)=O)C(=O)NCCNC(=O)OC` [Example 46, Methyl (R)-(2-(4-amino-2-octanamido-4-oxobutanamido)ethyl)carbamate], for which the “% Remaining in ClbP Negative Relative to Media-Only” value with E. coli BL21(DE3) was “− (>75% compound remaining in the 20 μM WT ClbP reaction relative to the no-enzyme control)”. Moreover, in assay [1], the “% Remaining in ClbP Positve Relative to Media-Only” value is “++ (<25% compound remaining in the 20 μM WT ClbP reaction relative to the control)”; the “Difference between the ClbP Positive and ClbP Negative release profiles” value is on record as “particularly favorable difference”.

For `CCCCCCCC(=O)N[C@H](CC(N)=O)C(=O)NCCC(C)(C)C(=O)Oc1ccc2nc3c(c(CC)c2c1)Cn1c-3cc2c(c1=O)COC(=O)[C@]2(O)CC` [Example 40, (S)-4,11-diethyl-4-hydroxy-3,14-dioxo-3,4,12,14-tetrahydro-1H-pyrano[3′,4′:6,7]indolizino[1,2-b]quinolin-9-yl 4-((R)-4-amino-2-octanamido-4-oxobutanamido)-2,2-dimethylbutanoate], the “% Remaining in ClbP Negative Relative to Media-Only” value in the assay on E. coli BL21(DE3) is “− (>75% compound remaining in the 20 μM WT ClbP reaction relative to the no-enzyme control)”. Also, the “% Remaining in ClbP Positve Relative to Media-Only” value in assay [1] is reported as “+ (between 25-75% compound remaining in the 20 μM WT ClbP reaction relative to the no-enzyme control)”.

For `CCCCCCCC(=O)N[C@H](Cc1c[nH]cn1)C(=O)N[C@@H](C)C(=O)OC` [Example 54, Methyl octanoyl-D-histidyl-L-alaninate] (Octanoyl-[dH]-Ala-OMe), in the assay with E. coli BL21(DE3), the “% Remaining in ClbP Negative Relative to Media-Only” value is reported as “+ (between 25-75% compound remaining in the 20 μM WT ClbP reaction relative to the no-enzyme control)”. In assay [1], the “% Remaining in ClbP Positve Relative to Media-Only” value was “+ (between 25-75% compound remaining in the 20 μM WT ClbP reaction relative to the no-enzyme control)”.

For the molecule `CCCCCCCCCCCCCC(=O)N[C@H](CC(N)=O)C(=O)NCCN(C)C(=O)Oc1ccc(Br)cc1` [Example 31, 4-bromophenyl (R)-(2-(4-amino-4-oxo-2-tetradecanamidobutanamido)ethyl)(methyl)carbamate], the “% Remaining in ClbP Negative Relative to Media-Only” value in the assay on E. coli BL21(DE3) is given as “− (>75% compound remaining in the 20 μM WT ClbP reaction relative to the no-enzyme control)”. In assay [1], the “% Remaining in ClbP Positve Relative to Media-Only” value is “− (>75% compound remaining in the 20 μM WT ClbP reaction relative to the no-enzyme control)”.

`CCCCCCCC(=O)N[C@H](CC(N)=O)C(=O)N[C@@H](C)CNC(=O)Oc1ccc(Br)cc1` [Example 48, 4-bromophenyl ((S)-2-((R)-4-amino-2-octanamido-4-oxobutanamido)propyl)carbamate]: in the assay on E. coli BL21(DE3), the “% Remaining in ClbP Negative Relative to Media-Only” value is listed as “+ (between 25-75% compound remaining in the 20 μM WT ClbP reaction relative to the no-enzyme control)”. Besides, the “% Remaining in ClbP Positve Relative to Media-Only” value in assay [1] is “+ (between 25-75% compound remaining in the 20 μM WT ClbP reaction relative to the no-enzyme control)”.

`CCCCCCNC(=O)N[C@H](CC(N)=O)C(=O)N[C@@H](C)C(=O)OC` [Example 53, Methyl (hexylcarbamoyl)-D-asparaginyl-L-alaninate]: the “% Remaining in ClbP Negative Relative to Media-Only” value in the assay on E. coli BL21(DE3) is “− (>75% compound remaining in the 20 μM WT ClbP reaction relative to the no-enzyme control)”. In assay [1], the “% Remaining in ClbP Positve Relative to Media-Only” value is on record as “++ (<25% compound remaining in the 20 μM WT ClbP reaction relative to the control)”; the “Difference between the ClbP Positive and ClbP Negative release profiles” value is “particularly favorable difference”.

For the molecule `CCCCCCCC(=O)N[C@H](CC(N)=O)C(=O)Nc1ccc(COC)cc1` [Example 44, (R)—N1-(4-(methoxymethyl)phenyl)-2-octanamidosuccinamide], in the assay on E. coli BL21(DE3), the “% Remaining in ClbP Negative Relative to Media-Only” value is “− (>75% compound remaining in the 20 μM WT ClbP reaction relative to the no-enzyme control)”. Further, the “% Remaining in ClbP Positve Relative to Media-Only” value in assay [1] is recorded as “− (>75% compound remaining in the 20 μM WT ClbP reaction relative to the no-enzyme control)”.

`CCCC(=O)N[C@H](CC(N)=O)C(=O)N[C@@H](C)CCC(=O)Oc1ccc2nc3c(c(CC)c2c1)Cn1c-3cc2c(c1=O)COC(=O)[C@]2(O)CC` [Example 58, (S)-4,11-diethyl-4-hydroxy-3,14-dioxo-3,4,12,14-tetrahydro-1H-pyrano[3′,4′:6,7]indolizino[1,2-b]quinolin-9-yl (S)-4-((R)-4-amino-2-butyramido-4-oxobutanamido)pentanoate]: the “% Remaining in ClbP Negative Relative to Media-Only” value with E. coli BL21(DE3) is “+ (between 25-75% compound remaining in the 20 μM WT ClbP reaction relative to the no-enzyme control)”. Moreover, in assay [1], the “% Remaining in ClbP Positve Relative to Media-Only” value was “++ (<25% compound remaining in the 20 μM WT ClbP reaction relative to the control)”.

For the molecule `CCCCCCCCCCCCCC(=O)N[C@H](CC(N)=O)C(=O)N[C@@H](C)CNC(=O)OC` [Example 23, Methyl ((S)-2-((R)-4-amino-4-oxo-2-tetradecanamidobutanamido)propyl)carbamate], the “% Remaining in ClbP Negative Relative to Media-Only” value in the assay with E. coli BL21(DE3) was “− (>75% compound remaining in the 20 μM WT ClbP reaction relative to the no-enzyme control)”. Moreover, in assay [1], the “% Remaining in ClbP Positve Relative to Media-Only” value is given as “+ (between 25-75% compound remaining in the 20 μM WT ClbP reaction relative to the no-enzyme control)”.

The values above are taken from patent US11998610B2, “Conjugates and methods of using the same” (Flagship Pioneering Innovations V, Inc., priority 2018, dated 2024).
